BigSolDB 2.1

## CN1CCN(C2=Nc3cc(Cl)ccc3Nc3ccccc32)CC1
In 2-ethoxyethanol, 278.15 K
  solubility (mole fraction): 0.0358
In 2-ethoxyethanol, 283.15 K
  solubility (mole fraction): 0.0391
In 2-ethoxyethanol, 288.15 K
  solubility (mole fraction): 0.0415
In 2-ethoxyethanol, 293.15 K
  solubility (mole fraction): 0.0442
In 2-ethoxyethanol, 298.15 K
  solubility (mole fraction): 0.0476
In 2-ethoxyethanol, 303.15 K
  solubility (mole fraction): 0.0499
In 2-ethoxyethanol, 308.15 K
  solubility (mole fraction): 0.053
In 2-ethoxyethanol, 313.15 K
  solubility (mole fraction): 0.0566
In 2-ethoxyethanol, 318.15 K
  solubility (mole fraction): 0.0612
In 2-ethoxyethanol, 323.15 K
  solubility (mole fraction): 0.0666
In 2-methoxyethanol, 278.15 K
  solubility (mole fraction): 0.0326
In 2-methoxyethanol, 283.15 K
  solubility (mole fraction): 0.0349
In 2-methoxyethanol, 288.15 K
  solubility (mole fraction): 0.0366
In 2-methoxyethanol, 293.15 K
  solubility (mole fraction): 0.0393
In 2-methoxyethanol, 298.15 K
  solubility (mole fraction): 0.0422
In 2-methoxyethanol, 303.15 K
  solubility (mole fraction): 0.0451
In 2-methoxyethanol, 308.15 K
  solubility (mole fraction): 0.048
In 2-methoxyethanol, 313.15 K
  solubility (mole fraction): 0.0508
In 2-methoxyethanol, 318.15 K
  solubility (mole fraction): 0.0546
In 2-methoxyethanol, 323.15 K
  solubility (mole fraction): 0.0596
In 2-propoxyethanol, 278.15 K
  solubility (mole fraction): 0.042
In 2-propoxyethanol, 283.15 K
  solubility (mole fraction): 0.0443
In 2-propoxyethanol, 288.15 K
  solubility (mole fraction): 0.0463
In 2-propoxyethanol, 293.15 K
  solubility (mole fraction): 0.0499
In 2-propoxyethanol, 298.15 K
  solubility (mole fraction): 0.0521
In 2-propoxyethanol, 303.15 K
  solubility (mole fraction): 0.0548
In 2-propoxyethanol, 308.15 K
  solubility (mole fraction): 0.0581
In 2-propoxyethanol, 313.15 K
  solubility (mole fraction): 0.0612
In 2-propoxyethanol, 318.15 K
  solubility (mole fraction): 0.0637
In 2-propoxyethanol, 323.15 K
  solubility (mole fraction): 0.0679
In ethanol, 278.15 K
  solubility (mole fraction): 0.00466
In ethanol, 283.15 K
  solubility (mole fraction): 0.00535
In ethanol, 288.15 K
  solubility (mole fraction): 0.00581
In ethanol, 293.15 K
  solubility (mole fraction): 0.0064
In ethanol, 298.15 K
  solubility (mole fraction): 0.0072
In ethanol, 303.15 K
  solubility (mole fraction): 0.0081
In ethanol, 308.15 K
  solubility (mole fraction): 0.00917
In ethanol, 313.15 K
  solubility (mole fraction): 0.0105
In ethanol, 318.15 K
  solubility (mole fraction): 0.012
In ethanol, 323.15 K
  solubility (mole fraction): 0.0134
In ethyl acetate, 278.15 K
  solubility (mole fraction): 0.00895
In ethyl acetate, 283.15 K
  solubility (mole fraction): 0.01
In ethyl acetate, 288.15 K
  solubility (mole fraction): 0.0114
In ethyl acetate, 293.15 K
  solubility (mole fraction): 0.0128
In ethyl acetate, 298.15 K
  solubility (mole fraction): 0.0146
In ethyl acetate, 303.15 K
  solubility (mole fraction): 0.016
In ethyl acetate, 308.15 K
  solubility (mole fraction): 0.0181
In ethyl acetate, 313.15 K
  solubility (mole fraction): 0.0203
In ethyl acetate, 318.15 K
  solubility (mole fraction): 0.0233
In ethyl acetate, 323.15 K
  solubility (mole fraction): 0.0265
In methyl acetate, 278.15 K
  solubility (mole fraction): 0.00616
In methyl acetate, 283.15 K
  solubility (mole fraction): 0.00707
In methyl acetate, 288.15 K
  solubility (mole fraction): 0.00797
In methyl acetate, 293.15 K
  solubility (mole fraction): 0.0094
In methyl acetate, 298.15 K
  solubility (mole fraction): 0.0108
In methyl acetate, 303.15 K
  solubility (mole fraction): 0.0124
In methyl acetate, 308.15 K
  solubility (mole fraction): 0.0142
In methyl acetate, 313.15 K
  solubility (mole fraction): 0.0164
In methyl acetate, 318.15 K
  solubility (mole fraction): 0.0188
In methyl acetate, 323.15 K
  solubility (mole fraction): 0.022
In n-butanol, 278.15 K
  solubility (mole fraction): 0.00644
In n-butanol, 283.15 K
  solubility (mole fraction): 0.00761
In n-butanol, 288.15 K
  solubility (mole fraction): 0.00853
In n-butanol, 293.15 K
  solubility (mole fraction): 0.00972
In n-butanol, 298.15 K
  solubility (mole fraction): 0.0112
In n-butanol, 303.15 K
  solubility (mole fraction): 0.0129
In n-butanol, 308.15 K
  solubility (mole fraction): 0.0145
In n-butanol, 313.15 K
  solubility (mole fraction): 0.0164
In n-butanol, 318.15 K
  solubility (mole fraction): 0.0192
In n-butanol, 323.15 K
  solubility (mole fraction): 0.0217
In n-butyl acetate, 278.15 K
  solubility (mole fraction): 0.0121
In n-butyl acetate, 283.15 K
  solubility (mole fraction): 0.0136
In n-butyl acetate, 288.15 K
  solubility (mole fraction): 0.0147
In n-butyl acetate, 293.15 K
  solubility (mole fraction): 0.0164
In n-butyl acetate, 298.15 K
  solubility (mole fraction): 0.0182
In n-butyl acetate, 303.15 K
  solubility (mole fraction): 0.02
In n-butyl acetate, 308.15 K
  solubility (mole fraction): 0.0228
In n-butyl acetate, 313.15 K
  solubility (mole fraction): 0.0255
In n-butyl acetate, 318.15 K
  solubility (mole fraction): 0.0276
In n-butyl acetate, 323.15 K
  solubility (mole fraction): 0.0314
In n-pentanol, 278.15 K
  solubility (mole fraction): 0.00737
In n-pentanol, 283.15 K
  solubility (mole fraction): 0.00904
In n-pentanol, 288.15 K
  solubility (mole fraction): 0.0107
In n-pentanol, 293.15 K
  solubility (mole fraction): 0.0121
In n-pentanol, 298.15 K
  solubility (mole fraction): 0.0135
In n-pentanol, 303.15 K
  solubility (mole fraction): 0.0152
In n-pentanol, 308.15 K
  solubility (mole fraction): 0.0177
In n-pentanol, 313.15 K
  solubility (mole fraction): 0.0203
In n-pentanol, 318.15 K
  solubility (mole fraction): 0.0234
In n-pentanol, 323.15 K
  solubility (mole fraction): 0.0264
In n-pentyl acetate, 278.15 K
  solubility (mole fraction): 0.0131
In n-pentyl acetate, 283.15 K
  solubility (mole fraction): 0.0143
In n-pentyl acetate, 288.15 K
  solubility (mole fraction): 0.0162
In n-pentyl acetate, 293.15 K
  solubility (mole fraction): 0.0176
In n-pentyl acetate, 298.15 K
  solubility (mole fraction): 0.0198
In n-pentyl acetate, 303.15 K
  solubility (mole fraction): 0.0221
In n-pentyl acetate, 308.15 K
  solubility (mole fraction): 0.024
In n-pentyl acetate, 313.15 K
  solubility (mole fraction): 0.0269
In n-pentyl acetate, 318.15 K
  solubility (mole fraction): 0.0298
In n-pentyl acetate, 323.15 K
  solubility (mole fraction): 0.0334
In n-propanol, 278.15 K
  solubility (mole fraction): 0.00577
In n-propanol, 283.15 K
  solubility (mole fraction): 0.00645
In n-propanol, 288.15 K
  solubility (mole fraction): 0.00734
In n-propanol, 293.15 K
  solubility (mole fraction): 0.0083
In n-propanol, 298.15 K
  solubility (mole fraction): 0.00928
In n-propanol, 303.15 K
  solubility (mole fraction): 0.0109
In n-propanol, 308.15 K
  solubility (mole fraction): 0.0123
In n-propanol, 313.15 K
  solubility (mole fraction): 0.0148
In n-propanol, 318.15 K
  solubility (mole fraction): 0.0168
In n-propanol, 323.15 K
  solubility (mole fraction): 0.019
In n-propyl acetate, 278.15 K
  solubility (mole fraction): 0.0114
In n-propyl acetate, 283.15 K
  solubility (mole fraction): 0.0128
In n-propyl acetate, 288.15 K
  solubility (mole fraction): 0.014
In n-propyl acetate, 293.15 K
  solubility (mole fraction): 0.0157
In n-propyl acetate, 298.15 K
  solubility (mole fraction): 0.0174
In n-propyl acetate, 303.15 K
  solubility (mole fraction): 0.0194
In n-propyl acetate, 308.15 K
  solubility (mole fraction): 0.0219
In n-propyl acetate, 313.15 K
  solubility (mole fraction): 0.0246
In n-propyl acetate, 318.15 K
  solubility (mole fraction): 0.027
In n-propyl acetate, 323.15 K
  solubility (mole fraction): 0.0305
